# Laboratory results: patent US20120302629A1, “BIOMARKERS FOR GOSSYPOL CHEMOTHERAPY AND METHODS OF TREATING DISEASE” (THE REGENTS OF THE UNIVERSITY OF MICHIGAN, priority 2009, published 2012)
# Numbered stars: 1 amine (or outer) side, 2 acyl side, 3 side chain; on linkers, the order of the positions; unused ones are H or OH. Bridge positions count the residues as written; N and C are the ends. Square brackets hold non-standard residues; d marks the D form. Peptide text beside a SMILES is read from it. I, II: the chains in the order shown. Actinocin(9to1) = Cc1c2oc3c(C)ccc(C(=O)[*:1])c3nc-2c(C(=O)[*:2])c(N)c1=O; NMeV = CN[C@H](C(=O)O)C(C)C; Sar = CNCC(=O)O
# Legend:
# [1] = tested on: PC-3 cells; experiment: WST cell growth assay; format: cell-based, human; conditions: Homo sapiens, PC-3, 96 h; 4 days
# Description: (§1) Cell Growth, Cell Death, and Apoptosis: Cell growth inhibition by (−)-gossypol was determined in a water-soluble tetrazolium (WST)-based assay, as described previously (Shangary et al., Proc. Natl. Acad. Sci. USA 105:3933 (2008)). Cell viability was determined by trypan blue due exclusion as described (Shangary et al., Proc. Natl. Acad. Sci. USA 105:3933 (2008)). Experiments were done in triplicate. To examine apoptosis, cells were stained with Annexin V and PI and analyzed by flow cytometery using an Annexin V-FITC staining kit (Roche Applied Science, Indianapolis, Ind.) according to manufacturer's instructions. Briefly, cells were treated and collected by centrifugation, washed with PBS once and then stained with annexinV-FITC and PI for 15 min at room temperature in the dark. Stained cells were analyzed in a FACS caliber flow cytometer. AnnexinV positive cells are considered as apoptotic cells.
# [2] = tested on: 2LMP cells; experiment: WST cell growth assay; format: cell-based, human; conditions: Homo sapiens, 96 h; 4 days
# Description: as §1
# [3] = tested on: PC-3 cells; experiment: Cell death by trypan blue dye exclusion; format: cell-based, human; conditions: Mcl-1 knock-down
# Description: as §1
# [4] = tested on: 2LMP cells; experiment: Cell death by trypan blue dye exclusion; format: cell-based, human; conditions: for cell death: 48 h
# Description: as §1
# [5] = tested on: MEF Bax/Bak KO cells; experiment: Apoptosis (Annexin V/PI flow cytometry) in MEF cells; format: cell-based; conditions: all the concentrations tested
# Description: as §1
# [6] = tested on: Bcl-2 family proteins in PC-3 cells; experiment: Western blot of whole cell lysates; format: cell-based, human; conditions: cotreatment with (−)-gossypol (FIG. 26)
# Description: (§2) Western blot assay: Proteins were harvested in RIPA buffer, then electrophoresed on 4-20% gradient SDS-PAGE gels (Invitrogen, Grand Island, N.Y.) and transferred to PVDF membranes. The membranes were blocked in 5% milk and then incubated with specific primary antibody, followed by secondary antibody. The signals were visualized with the chemiluminescent HRP antibody detection reagent (Deville Scientific, Metuchen, N.J.).
# [7] = tested on: Bcl-2 family proteins in 2LMP cells; experiment: Western blot of whole cell lysates; format: cell-based, human; conditions: cotreatment with (−)-gossypol (FIG. 26)
# Description: as §2
# [8] = tested on: Noxa, Puma and Mcl-1 RNAs in 2LMP, PC-3, MDA-MB-436 and DU145 cells; experiment: Taqman real-time PCR with actinomycin D cotreatment; format: cell-based, human; conditions: cotreatment with (−)-gossypol 10 μm
# Description: Real-Time PCR: Total RNA was extracted by RNA miniprep kit (Sigma) from cells treated with or without of (−)-gossypol. cDNA was synthesized from 2 μg of RNA using cDNA reverse transcription kits (Applied Biosystems). Next, Taqman gene expression assays were performed using Noxa (Hs00560402_ml), Puma (Hs00248075_ml), Mcl-1 (Hs00172036_ml) gene specific primers/probe sets for real-time PCR in a ABI7900HT PCR machine. GAPDH (Hs99999905_ml) was used for normalization. Relative quantitation of mRNA was calculated by comparative cycle threshold (Ct) method.
structure (smiles),measurement,setting,value
"CN(C)CC[C@H](CSc1ccccc1)Nc1ccc(S(=O)(=O)NC(=O)c2ccc(N3CCN(Cc4ccccc4-c4ccc(Cl)cc4)CC3)cc2)cc1[N+](=O)[O-] [ABT-737, reference compound]",IC50,[1],> 10 µM
same,IC50,[2],> 10 µM
same,cell death induction upon knock-down of Mcl-1,[3],sensitizes
same,cell death,[4]; 1 μM,no effect
same,cell death,[4]; 2.5 μM,no effect
same,cell death induction upon knock-down of Mcl-1,[4]; Mcl-1 knock-down,sensitizes
"COc1cc([C@@H]2c3cc4c(cc3[C@@H](O[C@@H]3O[C@@H]5CO[C@@H](C)O[C@H]5[C@H](O)[C@H]3O)[C@H]3COC(=O)[C@H]23)OCO4)cc(OC)c1O [VP-16, 4′-demethylepipodophyllotoxin 9-[4,6-0-(R)-ethylidene-(beta)-D-glucopyranoside], reference compound]",induction of cell death in the MEF Bax/Bak double knock-out,[5],blocked
"Cc1c2oc3c(C)ccc(C(=O)N[C@@H]4C(=O)N[C@H](C(C)C)C(=O)N5CCC[C@H]5C(=O)N(C)CC(=O)N(C)[C@@H](C(C)C)C(=O)O[C@@H]4C)c3nc-2c(C(=O)N[C@@H]2C(=O)N[C@H](C(C)C)C(=O)N3CCC[C@H]3C(=O)N(C)CC(=O)N(C)[C@@H](C(C)C)C(=O)O[C@@H]2C)c(N)c1=O [actinomycin D, reference compound] (I: T[dV]P[Sar][NMeV] / II: T[dV]P[Sar][NMeV]; ester I:1-I:C, II:1-II:C; linker I:N-II:N via Actinocin(9to1))",(−)-gossypol-upregulated Noxa and Puma proteins under cotreatment,[6],significantly blocked
same,(−)-gossypol-upregulated Noxa and Puma proteins under cotreatment,[7],significantly blocked
same,"upregulation of Noxa, Puma and Mcl-1 RNAs by (−)-gossypol under cotreatment",[8],completely blocks
